ILS and EC50 data for 17 compounds are collected here from ChEMBL document CHEMBL1151606, “Relationship of structure of bridged (2,6-dimethyl-4-pyridinyl)quinolones to mammalian topoisomerase II inhibition” (Bioorg Med Chem Lett, 1993).

Molecules are shown by their SMILES.

In general, ILS refers to the gain in survival time of treated over control animals, in per cent. Broadly, the EC50 is the midpoint of the concentration-response curve. A higher EC50 goes with weaker potency.

The test system of one experiment is Mus musculus. Nature of the experiment: Tested for the increased life span (ILS) in murine leukemia model (in which P388 administered intraperitoneally), at a concentration of 1014 mg/kg. Format: functional. To be noted: P388, ip, route intraperitoneal.
For `Cc1cc(-c2c(F)cc3c(=O)c(C(=O)O)cn4c3c2SC[C@@H]4C)cc(C)n1`, the ILS at 1014 mg/kg worked out at 90%.

The subject of another experiment is Mus musculus. The experiment in a line: Tested for the increased life span (ILS) in murine leukemia model (in which P388 administered intraperitoneally), at a concentration of 180 mg/kg. Format: functional. The note with it: P388, ip, route intraperitoneal.
The compound `COc1cc([C@@H]2c3cc4c(cc3C(O[C@@H]3O[C@@H]5CO[C@@H](C)O[C@H]5[C@H](O)[C@H]3O)C3COC(=O)[C@@H]32)OCO4)cc(OC)c1O` (single isomer, unassigned) [ETOPOSIDE] showed an increase in lifespan (ILS) at 180 mg/kg of 220%.

The target of the next experiment is DNA topoisomerase II (Homo sapiens, UniProt P11388+Q02880). Nature of the experiment: Tested for inhibitory activity against Topoisomerase II isolated from HeLa cells by using SDS-K+ precipitation method. Format: cell-based.
Details: not given
The compound `Cc1cc(-c2c(F)cc3c(=O)c(C(=O)O)cn4c3c2OCC[C@@H]4C)cc(C)n1` had an EC50 of 150 µM.
Same read-out and setting: as for `C[C@H]1COc2c(-c3ccncc3)c(F)cc3c(=O)c(C(=O)O)cn1c23`, the figure is 57 µM; as for `Cc1cc(-c2c(F)cc3c(=O)c(C(=O)O)cn4c3c2OC[C@@H]4C)cc(C)n1`, 31 µM.
Still for that read-out and setting: the same measure for `Cc1cc(-c2c(F)cc3c(=O)c(C(=O)O)cn4c3c2SC[C@@H]4C)cc(C)n1`: 9.4 µM; for `Cc1cc(-c2c(F)cc3c(=O)c(C(=O)O)cn4c3c2NC[C@@H]4C)cc(C)n1`: 730 µM; for `Cc1cc(-c2c(F)cc3c(=O)c(C(=O)O)cn4c3c2OCC42CC2)cc(C)n1`: greater than 130 µM.
The same measure, in the same setting: as for `Cc1cc(-c2c(F)cc3c(=O)c(C(=O)O)cn4c3c2OCC4(C)C)cc(C)n1`, the figure is 510 µM.
Regarding `Cc1cc(-c2c(F)c(F)c3c(=O)c(C(=O)O)cn4c3c2OC[C@@H]4C)cc(C)n1`, the EC50 turned out to be 50 µM.
Still for that read-out and setting: the same measure for `CCn1cc(C(=O)O)c(=O)c2cc(F)c(-c3cc(C)nc(C)c3)cc21`: greater than 570 µM.
`C[C@H]1COc2c(-c3ccc4cnccc4c3)c(F)cc3c(=O)c(C(=O)O)cn1c23` had an EC50 of 58 µM.
Still for that read-out and setting: the same measure for `Cc1cc(-c2c(F)cc3c(=O)c(C(=O)O)cn4c3c2[S+]([O-])C[C@@H]4C)cc(C)n1` (stereo partly drawn): 62 µM; for `CC[C@H]1COc2c(-c3cc(C)nc(C)c3)c(F)cc3c(=O)c(C(=O)O)cn1c23`: 420 µM.
The compound `Cc1cc(-c2c(F)cc3c(=O)c(C(=O)O)cn4c3c2SC[C@H]4C)cc(C)n1` showed an EC50 greater than 260 µM.
In turn, `Cc1cc(-c2ccc3c(=O)c(C(=O)O)cn4c3c2OC[C@@H]4C)cc(C)n1` showed an EC50 greater than 290 µM.
`Cc1cc(-c2c(F)cc3c(=O)c(C(=O)O)cn4c3c2OC[C@H]4C)cc(C)n1` came in with an EC50 greater than 540 µM.
The same measure, in the same setting: as for `Cc1cc(-c2c(F)cc3c(=O)c(C(=O)O)cn4c3c2OCC4)cc(C)n1.Cl`, the figure is greater than 560 µM.
